Earlier results, collected in patent US20230346899A1 (priority 2022, published 2023).

System: SARS-CoV-2
Conditions: moderate COVID-19 patients

Row | Substance | Median time to elimination of SARS-CoV-2 confirmed by RT-PCR, days (IQR) | Median time to improvement in clinical status by 2 points on the WHO-OSCI, days (IQR) | Median time to normalization of CRP concentration (≤10 mg/L) in patient's blood, days (IQR) | Median time to normalization of body temperature (<37° C.), days (IQR) | Median time to normalization of D-dimer concentration (<253 ng/mL) in patient's blood, days (IQR)
1 | favipiravir [FVP + SOC)] | 4.5 (4-9) days | 14.0 (11.5-16) days | 14.0 (5.5-14) days | 2.0 (1-3) days | –
2 | aprotinin | 7.5 (6-9) days | 11.0 (6-11) days | 6.0 (6-6) days | 3.0 (2-3) days | 4.5 (3-6) days
